In patent EP0003212A1, “2.4-Diamino-5-benzylpyrimidines, pharmaceutical compositions containing them and their preparation” (F. HOFFMANN-LA ROCHE & CO. Aktiengesellschaft, priority 1977, dated 1979):
Where two headings read alike, the source gives them in different places.

What was measured:
E. coli 1346 = assay: In vitro antibacterial activity (MIC); assay type: cell-based; details: strain E. coli 1346, unit not given
S. aureus Schoch. = assay: In vitro antibacterial activity (MIC); assay type: cell-based; details: strain S. aureus Schoch., unit not given
[1] = target: bakterielle Dihydrofolsäurereduktase (DHFR) (Escherichia coli, UniProt P0ABQ4); assay: 50% inhibition of bacterial dihydrofolate reductase; assay type: biochemical, E. coli
Source text: Die Verbindungen der Formel I und ihre Salze sind antibakteriell wirksam. Sie hemmen die bakterielle Dihydrofolsäurereduktase (DHFR) und potenzieren darüberhinaus die Wirkung von Sulfonamiden und anderen Dihydrofolsäuresynthetasehemmern. Beispiele von Sulfonamiden, die durch die erfindungsgemässen Verbindungen potenziert werden, sind solche der Pyrimidin-, Isoxazol-, Oxazol- und Pyrazinreihe wie Sulfadiazin, Sulfadimethoxin, Sulfadoxin, Sulfamerazin, Sulfameter, Sulfamethazin, 6-Methoxy-4-sulfanilamidopyrimidin, Sulfamethoxazol, Sulfisoxazol, 3-Sulfanilamido-4,5-dimethyl-isoxazol, Sulfamoxol und Sulfalen. Quantitativ zeichnen sich die erfindungsgemässen Verbindungen gegenüber bekannten Verbindungen durch niedrigere 50%ige Hemmkonzentrationen der bakteriellen DHFR, beispielsweise bei E. coli, und durch wesentlich höhere Q-Werte (50%ige Hemmung der DHFR bei Ratte/50%ige Hemmung der DHFR bei E. coli), die ein Mass für die Selektivität der Hemmung der bakteriellen DHFR darstellen, sowie durch geringe Toxizität aus.

[2] = DHFR of E. coli, read-out: 50% Hemmung der DHFR (M x 10^-8) E. coli

SMILES	Aktivität in vitro (MIC) E. coli 1346 (E. coli 1346)	Aktivität in vitro (MIC) S. aureus Schoch. (S. aureus Schoch.)	IC50 [1] [nM]	IC50 [1, 2] [nM]
COc1cc(Cc2cnc(N)nc2N)cc(OC)c1SC [R^1=H, R^2=OCH3, R^3=SCH3, R^4=OCH3, 2,4-Diamino-5-[3,5-dimethoxy-4-(methylthio)-benzyl]-pyrimidin]	0,02	0,4	3.5	
CSc1cc(Cc2cnc(N)nc2N)cc(SC)c1-n1cccc1 [R^1=H, R^2=SCH3, R^3=[drawing], R^4=SCH3]	> 1	4,0		5.2
COc1cc(Cc2cnc(N)nc2N)cc(SC)c1OC [R^1=H, R^2=SCH3, R^3=OCH3, R^4=OCH3]	0,1	0,78		5
COc1c(Br)cc(Cc2cnc(N)nc2N)cc1SC [R^1=H, R^2=SCH3, R^3=OCH3, R^4=Br]	0,2	1,0		11
COc1c(SC)cc(Cc2cnc(N)nc2N)cc1SC [R^1=H, R^2=SCH3, R^3=OCH3, R^4=SCH3]	0,7	0,2		7.2
CSc1ccc(Cc2cnc(N)nc2N)cc1SC [R^1=H, R^2=H, R^3=SCH3, R^4=SCH3]		0,7		16
CSc1cc(C)c(Cc2cnc(N)nc2N)cc1SC [R^1=CH3, R^2=H, R^3=SCH3, R^4=SCH3, 2,4-Diamino-5-[2-methyl-4,5-bis-(methylthio)-benzyl]-pyrimidin]	0,7	0,7	15	
CCSc1c(OC)cc(Cc2cnc(N)nc2N)cc1OC [R^1=H, R^2=OCH3, R^3=SC2H5, R^4=OCH3, 2,4-Diamino-5-[4-(äthylthio)-3,5-dimethoxybenzyl]-pyrimidin]	0,04	0,4		1.8
CSc1cc(Cc2cnc(N)nc2N)cc(SC)c1SC [R^1=H, R^2=SCH3, R^3=SCH3, R^4=SCH3]	0,2	0,2		4.5
COCCSc1c(OC)cc(Cc2cnc(N)nc2N)cc1OC [R^1=H, R^2=OCH3, R^3=SC2H4OCH3, R^4=OCH3]		1,0		97
